Assay results taken from US20140243414A1, “PHARMACEUTICAL COMPOSITIONS OF CETP INHIBITORS” (Japan Tobacco Inc., priority 2003, published 2014).
Where two headings read alike, the source gives them in different places.

How the values were obtained:
[1] = biological target: T1, CETP (Homo sapiens, UniProt P11597); assay: Food effect on CETP activity, 900 mg Compound I, Caucasian males (Example 6); type: in vivo; details: for change in vivo at 900 mg: read-out: Percent change from pre-dose in CETP activity (mean)
T1 construct: from tissue; host or cells: blood / plasma of human subjects dosed orally with Compound I
T1 sequence (P11597 18-493): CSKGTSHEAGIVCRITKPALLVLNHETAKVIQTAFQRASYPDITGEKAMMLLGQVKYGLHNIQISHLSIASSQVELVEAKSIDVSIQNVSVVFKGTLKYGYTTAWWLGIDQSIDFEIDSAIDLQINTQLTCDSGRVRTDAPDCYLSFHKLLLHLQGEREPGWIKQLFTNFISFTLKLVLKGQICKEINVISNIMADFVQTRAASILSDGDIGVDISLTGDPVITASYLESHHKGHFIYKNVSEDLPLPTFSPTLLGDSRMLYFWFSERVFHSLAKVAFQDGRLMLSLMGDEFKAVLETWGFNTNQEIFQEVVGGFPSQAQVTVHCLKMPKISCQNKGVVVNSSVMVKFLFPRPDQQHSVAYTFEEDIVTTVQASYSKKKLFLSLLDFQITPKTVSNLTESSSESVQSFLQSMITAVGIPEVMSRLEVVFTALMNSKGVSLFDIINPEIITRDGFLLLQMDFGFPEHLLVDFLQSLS
Text: Administration, dosing, and sampling schedules were substantially similar to those described in Example 1.
The procedure for determining CETP activity is described in Example 5.
The mean changes from baseline (pre-dose) in CETP activity over time are set out in the plot of FIG. 3.

[2] = biological target: T1, CETP; assay: Relative CETP activity after single oral doses, Japanese males (Example 7); type: in vivo; details: for response vs control in vivo at 100 mg: 100 mg with food; for response vs control in vivo at 100 mg / response vs control in vivo at 300 mg / response vs control in vivo at 600 mg / response vs control in vivo at 900 mg / response vs control in vivo at 1200 mg / response vs control in vivo at 1500 mg / response vs control in vivo at 1800 mg: read-out: Percent CETP activity relative to pre-dose; for response vs control in vivo at 300 mg: 300 mg with food; for response vs control in vivo at 600 mg: 600 mg with food; for response vs control in vivo at 900 mg: 900 mg with food; for response vs control in vivo at 1200 mg: 1200 mg with food; for response vs control in vivo at 1500 mg: 1500 mg with food; for response vs control in vivo at 1800 mg: 1800 mg with food
Description: Administration, dosing, and sampling schedules were commensurate with those described in Example 1. The tablets were prepared as described in Example 1.
Relative CETP activities (calculated as a percentage of baseline CETP activity) and standard deviations (SD) were measured, and the resulting data is summarized in Table 8.

[3] = biological target: T1, CETP; assay: Food effect on relative CETP activity, 600 mg Compound I, Japanese males (Example 8); type: in vivo
Description: Administration, dosing, and sampling schedules were commensurate with those described in Examples 1 and 6. […] Patients were administered two tablets of 300 mg each. The tablets were prepared as described in Example 1.
Relative CETP activities (calculated as a percentage of baseline CETP activity) and standard deviations (SD) were measured, and the resulting data is summarized in Table 9.

[4] = system: TC, HDL-C, LDL-C; assay: Lipid levels after 4 weeks daily treatment, healthy volunteers (Example 9); type: in vivo, human; details: for Decrease in TC/HDL-C ratio relative to baseline / Increase in HDL-C levels relative to baseline: 4 weeks; for Absolute change in HDL-C / Absolute change in TC / Absolute change in TC/HDL-C ratio / Absolute change in LDL-C: 4 weeks treatment, mean ± SD; for Absolute change in LDL-C: LDL-C by Friedewald formula
Description: Each patient took three tablets after breakfast each day for 4 weeks. Patients either took three placebo tablets (placebo); one 300 mg tablet and two placebo tablets (low dose); two 300 mg tablets and one placebo tablet (medium dose); or three 300 mg tablets (high dose). Tablet preparation was as described as in Example 1.
The testing period consisted of (a) a run-in period of 4 weeks, followed by (b) 4 weeks of treatment, and (c) 4 weeks of monitoring. Blood samples were drawn after an overnight fast. […] HDL-C was determined with a heparin MnCl2 precipitation reagent and LDL-C was calculated by the Friedewald formula (see, de Grooth et al., supra). CETP activity was measured as described in Example 5.
Table 11 describes the absolute changes in the assayed properties after 4 weeks of treatment.

## CCC(CC)CC1(C(=O)Nc2ccccc2SC(=O)C(C)C)CCCCC1 [Compound I, S-[2-([[1-(2-ethylbutyl)cyclohexyl]carbonyl]amino)phenyl]2-methylpropanethioate]
[1]; 1 h, fasted, 1 h
  change in vivo at 900 mg: 1%
[1]; 1 h, fed, 1 h
  change in vivo at 900 mg: -1%
[1]; 2 h, fasted, 2 h
  change in vivo at 900 mg: 2%
[1]; 2 h, fed, 2 h
  change in vivo at 900 mg: -16%
[1]; 4 h, fasted, 4 h
  change in vivo at 900 mg: -4%
[1]; 4 h, fed, 4 h
  change in vivo at 900 mg: -44%
[1]; 6 h, fasted, 6 h
  change in vivo at 900 mg: -10%
[1]; 6 h, fed, 6 h
  change in vivo at 900 mg: -59%
[1]; 8 h, fasted, 8 h
  change in vivo at 900 mg: -15%
[1]; 8 h, fed, 8 h
  change in vivo at 900 mg: -58%
[1]; 24 h, fasted, 24 h
  change in vivo at 900 mg: -10%
[1]; 24 h, fed, 24 h
  change in vivo at 900 mg: -34%
[1]; all subjects (fed and fasted periods), post-study
  CETP activity, Post-study (all subjects): 96
[2]; post-study
  response vs control in vivo at 100 mg: 99.2%
  response vs control in vivo at 300 mg: 96.1%
  response vs control in vivo at 600 mg: 103%
  response vs control in vivo at 900 mg: 95.1%
  response vs control in vivo at 1200 mg: 95.2%
  response vs control in vivo at 1500 mg: 96.9%
  response vs control in vivo at 1800 mg: 93%
[2]; 300 mg, 6 hours after administration
  Decrease in CETP activity relative to pre-dose: about 19.5%
[2]; 600 mg, 6 hours after administration
  Decrease in CETP activity relative to pre-dose: about 62%
[2]; 900 mg, 4 hours after administration
  Decrease in CETP activity relative to pre-dose: about 76%
[2]; 1 h, 1 h
  response vs control in vivo at 100 mg: 96.2%
  response vs control in vivo at 300 mg: 100%
  response vs control in vivo at 600 mg: 100%
  response vs control in vivo at 900 mg: 100%
  response vs control in vivo at 1200 mg: 94.2%
  response vs control in vivo at 1500 mg: 101%
  response vs control in vivo at 1800 mg: 85.3%
[2]; 2 h, 2 h
  response vs control in vivo at 100 mg: 92%
  response vs control in vivo at 300 mg: 90.7%
  response vs control in vivo at 600 mg: 87.8%
  response vs control in vivo at 900 mg: 52.1%
  response vs control in vivo at 1200 mg: 54%
  response vs control in vivo at 1500 mg: 85.7%
  response vs control in vivo at 1800 mg: 15.6%
[2]; 4 h, 4 h
  response vs control in vivo at 100 mg: 93.2%
  response vs control in vivo at 300 mg: 83.1%
  response vs control in vivo at 600 mg: 52.6%
  response vs control in vivo at 900 mg: ~24%
  response vs control in vivo at 1200 mg: 12.1%
  response vs control in vivo at 1500 mg: 13.3%
  response vs control in vivo at 1800 mg: 6%
[2]; 6 h, 6 h
  response vs control in vivo at 100 mg: 90.4%
  response vs control in vivo at 300 mg: ~80.5%
  response vs control in vivo at 600 mg: ~38%
  response vs control in vivo at 900 mg: 24.1%
  response vs control in vivo at 1200 mg: 10.5%
  response vs control in vivo at 1500 mg: 10.6%
  response vs control in vivo at 1800 mg: 8.4%
[2]; 8 h, 8 h
  response vs control in vivo at 100 mg: 90.4%
  response vs control in vivo at 300 mg: 80.6%
  response vs control in vivo at 600 mg: 39.1%
  response vs control in vivo at 900 mg: 29.8%
  response vs control in vivo at 1200 mg: 14.7%
  response vs control in vivo at 1500 mg: 15.4%
  response vs control in vivo at 1800 mg: 12.2%
[2]; 24 h, 24 h
  response vs control in vivo at 100 mg: 99.2%
  response vs control in vivo at 300 mg: 88.8%
  response vs control in vivo at 600 mg: 65.5%
  response vs control in vivo at 900 mg: 60.5%
  response vs control in vivo at 1200 mg: 47.6%
  response vs control in vivo at 1500 mg: 53.7%
  response vs control in vivo at 1800 mg: 49.5%
[3]; fasted, 1 h
  CETP activity relative to pre-dose: 102.1%
[3]; fasted, 2 h
  CETP activity relative to pre-dose: 99.6%
[3]; fasted, 4 h
  CETP activity relative to pre-dose: 96.5%
[3]; fasted, 6 h
  CETP activity relative to pre-dose: 89.5%
[3]; fasted, 8 h
  CETP activity relative to pre-dose: 87.8%
[3]; fasted, 24 h
  CETP activity relative to pre-dose: 92.6%
[3]; fasted, post-study
  CETP activity relative to pre-dose: 100.4%
[3]; fed, 1 h
  CETP activity relative to pre-dose: 100.4%
[3]; fed, 2 h
  CETP activity relative to pre-dose: 87.8%
[3]; fed, 4 h
  CETP activity relative to pre-dose: 52.6%
[3]; fed, 6 h
  CETP activity relative to pre-dose: 37.6%
[3]; fed, 8 h
  CETP activity relative to pre-dose: 39.1%
[3]; fed, 24 h
  CETP activity relative to pre-dose: 65.5%
[3]; fed, post-study
  CETP activity relative to pre-dose: 102.9%
[4]; 300 mg per day
  Decrease in TC/HDL-C ratio relative to baseline: about 13%
  Increase in HDL-C levels relative to baseline: about 15%
  Absolute change in HDL-C: 0.18 ± 0.15 mmol/L
  Absolute change in TC: −0.1 ± 0.5^ mmol/L
  Absolute change in TC/HDL-C ratio: −0.7 ± 0.8
  Absolute change in LDL-C: −0.2 ± 0.5^ mmol/L
[4]; 600 mg per day
  Decrease in TC/HDL-C ratio relative to baseline: about 18%
  Increase in HDL-C levels relative to baseline: about 26%
  Absolute change in HDL-C: 0.32 ± 0.22 mmol/L
  Absolute change in TC: 0.0 ± 0.6 mmol/L
  Absolute change in TC/HDL-C ratio: −0.9 ± 0.8
  Absolute change in LDL-C: −0.2 ± 0.6^ mmol/L
[4]; 900 mg per day
  Decrease in TC/HDL-C ratio relative to baseline: about 23%
  Increase in HDL-C levels relative to baseline: about 34%
  Absolute change in HDL-C: 0.40 ± 0.29 mmol/L
  Absolute change in TC: 0.0 ± 0.6 mmol/L
  Absolute change in TC/HDL-C ratio: −1.2 ± 0.7
  Absolute change in LDL-C: -0.3 ± 0.6 mmol/L
